Test results: patent US20230364051A1, “FORMULATIONS AND METHODS FOR IMPROVING AVIAN HEALTH” (CORNELL UNIVERSITY, priority 2022, published 2023)
Marks after values point to notes of the source that are not given here.

What was measured:
[1] = tested on: BBM Fe-related proteins and intestinal bacterial populations; settings: in vivo; cited from earlier work
[2] = Body weight and cecum weight at hatch after intraamniotic administration; format: in vivo, Gallus gallus
Description: (§1) Cornish-cross fertile broiler eggs (Gallus gallus, n = 39) were obtained from a commercial hatchery (Moyer’s chicks, Quakertown, PA, USA). The eggs were incubated under optimal conditions at the Cornell University Animal Science Poultry Farm Incubator [18]. All animal protocols were approved by Cornell University Institutional Animal Care and Use committee (IACUC #2020-0077). At day 17 of embryonic incubation, eggs containing viable embryos were weighed and divided into 5 groups, with all treatment groups assigned eggs of similar weight frequency distribution. Each group was then injected with the specific solution (1 mL per egg) with a 21-gauge needle into the amniotic fluid. Treatments in powder form were separately diluted in DI H2O. Two treatment groups (1.25, 2.5 wt. %), two controls (H2O and non-injected), and a positive control (5 wt. % inulin) were administered. After injection, the injection holes were sealed with cellophane tape and the eggs were placed in hatching baskets such that each treatment was equally represented at each incubator location. Immediately upon hatch (day 21), blood was taken for hemoglobin determination and all chicks were then euthanized by CO2 exposure. The small intestine, pectoral muscle, cecum, and liver were collected, immediately frozen in liquid nitrogen, and then stored in a -80° C. freezer until analysis.

[3] = Blood hemoglobin (QuantiChrom Hemoglobin Assay) at hatch after intraamniotic administration; format: in vivo, Gallus gallus; settings: 5 wt. % inulin intraamniotic, day 17; blood at hatch
Description: as §1, with “All animal protocols were approved by Cornell University Institutional Animal Care and Use committee (IACUC #2020-0077). At day 17 of embryonic incubation, eggs containing viable embryos were weighed and divided into 5 groups, with all treatment groups assigned eggs of similar weight frequency distribution.” left out, “Two treatment groups (1.25, 2.5 wt. %), two controls (H2O and non-injected), and a positive control (5 wt. % inulin) were administered.” left out
Blood was collected using micro-hematocrit heparinized capillary tubes (Fisher Scientific, Waltham, MA, USA). Blood Hb concentrations were determined spectrophotometrically using the QuantiChromTM Hemoglobin Assay (DIHB-250, BioAssay Systems, Hayward, CA, USA) following the kit manufacturer’s instructions.

[4] = Pectoral muscle glycogen analysis after intraamniotic administration; format: in vivo, Gallus gallus; settings: 5 wt. % inulin intraamniotic, day 17; pectoral muscle at hatch
Description: as §1
Glycogen analysis was obtained from pectoralis muscle as previously described. Briefly, the frozen pectoral muscle samples were homogenized in 8 wt. % perchloric acid. Samples were then centrifuged at 12,000 × g for 15 minutes. The supernatant was removed, and 1.0 mL of petroleum ether was added to each tube. After mixing, the petroleum ether fraction was removed and samples from the bottom layer were transferred to a 96-well plate containing 300 µL of color reagent. All samples were read at a wavelength of 450 nm in an ELISA reader and the amount of glycogen was calculated according to a standard curve. The amount of glycogen present in pectoral sample was determined by multiplying the weight of the tissue by the amount of glycogen per 1 g of wet tissue.

[5] = tested on: duodenum; assay: Duodenal tissue morphology examination (villi, crypts, goblet cells, Paneth cells); format: in vivo, Gallus gallus; settings: 5 wt. % inulin intraamniotic, day 17; duodenum at hatch
Description: as §1, with “All animal protocols were approved by Cornell University Institutional Animal Care and Use committee (IACUC #2020-0077). At day 17 of embryonic incubation, eggs containing viable embryos were weighed and divided into 5 groups, with all treatment groups assigned eggs of similar weight frequency distribution.” left out, “Two treatment groups (1.25, 2.5 wt. %), two controls (H2O and non-injected), and a positive control (5 wt. % inulin) were administered.” left out
Intestinal morphology examination was performed as was previously described. Duodenum samples were fixed in fresh 4 wt. % (v/v) buffered formaldehyde, dehydrated, cleared, and embedded in paraffin. Serial sections were cut at 5 µm and placed on glass slides. Intestinal sections were deparaffinized in xylene, rehydrated in a graded alcohol series, stained with Alcian Blue/Periodic acid-Schiff, and examined by light microscopy. The following variables were measured in the intestine: villus height, villus width, crypt depth, Paneth cell number per crypt, Paneth cell width, goblet cell number, goblet cell diameter, types of goblet cells in the villi epithelium, and types of goblet cells within the crypts. Measurements in each segment were performed with a light microscope using CellSens Standard software (Olympus, Waltham, MA, USA).

[6] = tested on: L. plantarum; assay: Duodenal bacterial populations by PCR of 16S rDNA: L. plantarum; format: in vivo, Gallus gallus; settings: 5 wt. % inulin vs H2O injected control, p < 0.05; duodenum, day of hatch
Description: as §1, with “Immediately upon hatch (day 21), blood was taken for hemoglobin determination and all chicks were then euthanized by CO2 exposure. The small intestine, pectoral muscle, cecum, and liver were collected, immediately frozen in liquid nitrogen, and then stored in a -80° C. freezer until analysis.” left out
(§2) Primers for Lactobacillus, Bifidobacterium, L. Plantarum, Clostridium, and E. coli were designed according to previously published data. […] PCR products were separated by electrophoresis on 2 wt. % agarose gel, stained with ethidium bromide, and quantified using the Quantity One 1-D analysis software (BioRad, Hercules, CA, USA).

[7] = tested on: Clostridium spp.; assay: Duodenal bacterial populations by PCR of 16S rDNA: Clostridium; format: in vivo, Gallus gallus; settings: 5 wt. % inulin vs no injection and H2O injection controls, p < 0.05; duodenum, day of hatch
Description: as §1, with “Immediately upon hatch (day 21), blood was taken for hemoglobin determination and all chicks were then euthanized by CO2 exposure. The small intestine, pectoral muscle, cecum, and liver were collected, immediately frozen in liquid nitrogen, and then stored in a -80° C. freezer until analysis.” left out
as §2

[8] = 5 wt. % inulin intraamniotic, day 17, at hatch

For `O=c1c(-c2ccc(O)cc2)coc2cc(O)ccc12` [daidzein], the “Expression of BBM Fe-related proteins and intestinal bacterial populations” value [1] is given as “affected”.

With inulin [reference compound] the “Average Body Weight” value [2, 8] was 46.04 ± 1.18 ^ab g, the “Average Cecum Weight” value [2, 8] was 0.43 ± 0.05 ^b g and the “Cecum weight of no injection and H2O groups compared to treated group” value ([2]; 5 wt. % inulin, p < 0.05) was “significantly greater values”. The “Average Hb” value [3] was 9.56 ± 0.92 ^c g/dL, the “Average Glycogen” value [4] was 0.002 ± 0.001 ^b mg/g and the “# Crypt Paneth Cells” value [5] was 2.56 ± 0.09 ^c. The “Crypt Depth” value [5] was 35.00 ± 0.43 ^b µm, the “Crypt Goblet Cell Diameter” value [5] was 2.51 ± 0.02 ^c µm and the “Crypt Goblet Cell Number Acidic” value [5] was 7.97 ± 0.16 ^b Unit. The “Crypt Goblet Cell Number Mixture” value [5] was 1.19 ± 0.08 ^c Unit, the “Crypt Goblet Cell Number Neutral” value [5] was 0.00 ± 0.00 ^a Unit and the “Crypt Goblet Cell Number Total” value [5] was 9.15 ± 0.16 ^b Unit. The “Crypt Paneth cell Diameter” value [5] was 1.68 ± 0.03 ^b µm, the “Villi Goblet Cell Diameter” value [5] was 2.74 ± 0.03 ^e µm and the “Villi Goblet Cell Number Acidic” value [5] was 16.39 ± 0.54 ^c Unit. For the same compound, the “Villi Goblet Cell Number Mixture” value [5] was 6.53 ± 0.30 ^a Unit, the “Villi Goblet Cell Number Neutral” value [5] was 0.10 ± 0.02 ^b Unit and the “Villi Goblet Cell Number Total” value [5] was 23.02 ± 0.60 ^b Unit. For the same compound, the “Villus Height” value [5] was 246.64 ± 5.14 ^a µm, the “Villus Surface Area” value [5] was 206.92 ± 6.37 ^a mm2 and the “Villus Width” value [5] was 50.98 ± 1.03 ^a µm. The “Relative abundance of L. plantarum” value [6] was “significantly increased” and the “Relative abundance of Clostridium spp.” value [7] was “significantly increased”.
